#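 GI50 is the concentration that inhibits growth by half. TGI is the concentration that stops growth completely.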
# Assays:
# Experiment in all cases: DTP human tumour cell line panel, 384-well format
# T-47D breast = system: T-47D breast
# SW-620 colon = system: SW-620 colon
# RXF 393 renal = system: RXF 393 renal
# SK-MEL-2 melanoma = system: SK-MEL-2 melanoma
# NCI-H23 lung = system: NCI-H23 lung
# MALME-3M melanoma = system: MALME-3M melanoma
# SK-OV-3 ovarian = system: SK-OV-3 ovarian
# ACHN renal = system: ACHN renal
# SR leukemia = system: SR leukemia
# DU-145 prostate = system: DU-145 prostate
# SNB-75 CNS = system: SNB-75 CNS
# MDA-MB-468 breast = system: MDA-MB-468 breast
# COLO 205 colon = system: COLO 205 colon
# OVCAR-8 ovarian = system: OVCAR-8 ovarian
# SNB-19 CNS = system: SNB-19 CNS
# HL-60(TB) leukemia = system: HL-60(TB) leukemia
# HS 578T breast = system: HS 578T breast
# MDA-MB-231 breast = system: MDA-MB-231 breast
# HCC-2998 colon = system: HCC-2998 colon
# PC-3 prostate = system: PC-3 prostate
# SK-MEL-5 melanoma = system: SK-MEL-5 melanoma
# OVCAR-4 ovarian = system: OVCAR-4 ovarian
# HCT-15 colon = system: HCT-15 colon
# M14 melanoma = system: M14 melanoma
# MCF7 breast = system: MCF7 breast
# A498 renal = system: A498 renal
# IGROV1 ovarian = system: IGROV1 ovarian
# SK-MEL-28 melanoma = system: SK-MEL-28 melanoma
# UACC-257 melanoma = system: UACC-257 melanoma
# NCI-H322M lung = system: NCI-H322M lung
# U251 glioblastoma = system: U251 glioblastoma
# A549 NSCLC = system: A549 NSCLC
# OVCAR-3 ovarian = system: OVCAR-3 ovarian
# SF-295 CNS = system: SF-295 CNS
# EKVX NSCLC = system: EKVX NSCLC
# NCI-H460 NSCLC = system: NCI-H460 NSCLC
# MOLT-4 leukemia = system: MOLT-4 leukemia
# MDA-MB-435 melanoma = system: MDA-MB-435 melanoma
# OVCAR-5 ovarian = system: OVCAR-5 ovarian
# HOP-92 NSCLC = system: HOP-92 NSCLC
# UACC-62 melanoma = system: UACC-62 melanoma
# 786-0 renal = system: 786-0 renal
# NCI-H226 lung = system: NCI-H226 lung
# NCI/ADR-RES ovarian = system: NCI/ADR-RES ovarian
# CAKI-1 renal = system: CAKI-1 renal
# SF-268 CNS = system: SF-268 CNS
# SF-539 CNS = system: SF-539 CNS
# HT29 colon = system: HT29 colon
# KM12 colon = system: KM12 colon
# NCI-H522 lung = system: NCI-H522 lung
# CCRF-CEM leukemia = system: CCRF-CEM leukemia
# SN12C renal = system: SN12C renal
# RPMI-8226 leukemia = system: RPMI-8226 leukemia
# BT-549 breast = system: BT-549 breast
# HOP-62 NSCLC = system: HOP-62 NSCLC
structure (smiles),measurement,setting,value
CC1=C(CO)C2=C(C)C3(CC3)[C@@](C)(O)C(=O)C2=C1,GI50,T-47D breast,159 nM
same,TGI,T-47D breast,423 nM
same,GI50,SW-620 colon,1160 nM
same,TGI,SW-620 colon,3150 nM
same,GI50,RXF 393 renal,16.7 nM
same,TGI,RXF 393 renal,35.8 nM
same,GI50,SK-MEL-2 melanoma,237 nM
same,TGI,SK-MEL-2 melanoma,392 nM
same,GI50,NCI-H23 lung,53.9 nM
same,TGI,NCI-H23 lung,181 nM
same,GI50,MALME-3M melanoma,152 nM
same,TGI,MALME-3M melanoma,296 nM
same,GI50,SK-OV-3 ovarian,179 nM
same,TGI,SK-OV-3 ovarian,390 nM
same,GI50,ACHN renal,214 nM
same,TGI,ACHN renal,404 nM
same,GI50,SR leukemia,171 nM
same,TGI,SR leukemia,361 nM
same,GI50,DU-145 prostate,46.8 nM
same,TGI,DU-145 prostate,305 nM
same,GI50,SNB-75 CNS,119 nM
same,TGI,SNB-75 CNS,250 nM
same,GI50,MDA-MB-468 breast,45.1 nM
same,TGI,MDA-MB-468 breast,125 nM
same,GI50,COLO 205 colon,132 nM
same,TGI,COLO 205 colon,272 nM
same,GI50,OVCAR-8 ovarian,219 nM
same,TGI,OVCAR-8 ovarian,527 nM
same,GI50,SNB-19 CNS,317 nM
same,TGI,SNB-19 CNS,1240 nM
same,GI50,HL-60(TB) leukemia,179 nM
same,TGI,HL-60(TB) leukemia,334 nM
same,GI50,HS 578T breast,325 nM
same,TGI,HS 578T breast,1070 nM
same,GI50,MDA-MB-231 breast,203 nM
same,TGI,MDA-MB-231 breast,473 nM
same,GI50,HCC-2998 colon,110 nM
same,TGI,HCC-2998 colon,240 nM
same,GI50,PC-3 prostate,186 nM
same,TGI,PC-3 prostate,404 nM
same,GI50,SK-MEL-5 melanoma,166 nM
same,TGI,SK-MEL-5 melanoma,376 nM
same,GI50,OVCAR-4 ovarian,201 nM
same,TGI,OVCAR-4 ovarian,392 nM
same,GI50,HCT-15 colon,188 nM
same,TGI,HCT-15 colon,365 nM
same,GI50,M14 melanoma,234 nM
same,TGI,M14 melanoma,576 nM
same,GI50,MCF7 breast,184 nM
same,TGI,MCF7 breast,496 nM
same,GI50,A498 renal,50.8 nM
same,TGI,A498 renal,367 nM
same,GI50,IGROV1 ovarian,163 nM
same,TGI,IGROV1 ovarian,447 nM
same,GI50,SK-MEL-28 melanoma,251 nM
same,TGI,SK-MEL-28 melanoma,624 nM
same,GI50,UACC-257 melanoma,216 nM
same,TGI,UACC-257 melanoma,465 nM
same,GI50,NCI-H322M lung,182 nM
same,TGI,NCI-H322M lung,369 nM
same,GI50,U251 glioblastoma,203 nM
same,TGI,U251 glioblastoma,410 nM
same,GI50,A549 NSCLC,96.2 nM
same,TGI,A549 NSCLC,527 nM
same,GI50,OVCAR-3 ovarian,152 nM
same,TGI,OVCAR-3 ovarian,312 nM
same,GI50,SF-295 CNS,185 nM
same,TGI,SF-295 CNS,374 nM
same,GI50,EKVX NSCLC,203 nM
same,TGI,EKVX NSCLC,452 nM
same,GI50,NCI-H460 NSCLC,43.7 nM
same,TGI,NCI-H460 NSCLC,174 nM
same,GI50,MOLT-4 leukemia,147 nM
same,TGI,MOLT-4 leukemia,336 nM
same,GI50,MDA-MB-435 melanoma,1760 nM
same,TGI,MDA-MB-435 melanoma,3480 nM
same,GI50,OVCAR-5 ovarian,213 nM
same,TGI,OVCAR-5 ovarian,519 nM
same,GI50,HOP-92 NSCLC,124 nM
same,TGI,HOP-92 NSCLC,445 nM
same,GI50,UACC-62 melanoma,394 nM
same,TGI,UACC-62 melanoma,1520 nM
same,GI50,786-0 renal,180 nM
same,TGI,786-0 renal,381 nM
same,GI50,NCI-H226 lung,297 nM
same,TGI,NCI-H226 lung,793 nM
same,GI50,NCI/ADR-RES ovarian,222 nM
same,TGI,NCI/ADR-RES ovarian,428 nM
same,GI50,CAKI-1 renal,178 nM
same,TGI,CAKI-1 renal,372 nM
same,GI50,SF-268 CNS,143 nM
same,TGI,SF-268 CNS,318 nM
same,GI50,SF-539 CNS,173 nM
same,TGI,SF-539 CNS,313 nM
same,GI50,HT29 colon,184 nM
same,TGI,HT29 colon,395 nM
same,GI50,KM12 colon,1400 nM
same,TGI,KM12 colon,3360 nM
same,GI50,NCI-H522 lung,116 nM
same,TGI,NCI-H522 lung,244 nM
same,GI50,CCRF-CEM leukemia,1490 nM
same,TGI,CCRF-CEM leukemia,2830 nM
same,GI50,SN12C renal,231 nM
same,TGI,SN12C renal,761 nM
same,GI50,RPMI-8226 leukemia,5960 nM
same,TGI,RPMI-8226 leukemia,18000 nM
same,GI50,BT-549 breast,132 nM
same,TGI,BT-549 breast,269 nM
same,GI50,HOP-62 NSCLC,159 nM
same,TGI,HOP-62 NSCLC,316 nM

# Reference: PubChem BioAssay (NCI)
